Measurements reported in article PMC9585939, “Unveiling a family of spiro-β-lactams with anti-HIV and antiplasmodial activity via phosphine-catalyzed [3+2] annulation of 6-alkylidene-penicillanates and allenoates” (Frontiers in Chemistry, 2022).

Experiments:
HIV-2 03PTHCC19 = assay: microbe, parasite or virus in culture; conditions: Human immunodeficiency virus 2, TZM-bl; for IC50 / IC90: 48 h; for IC50: read-out: IC50 HIV-2; for IC90: read-out: IC90 HIV-2; for inhibition at 25 µg/mL: read-out: MPI (%) 25 μg/mL
Excerpt: (§1) The HIV-1 SG3.1 is a reference subtype B strain that uses the CXCR4 coreceptor. It was obtained by transfection of HEK293T cells with pSG3.1 plasmid using jetPRIME transfection reagent (Polyplus-transfection SA, Illkirch, France), according to the instructions of the manufacturer.
(§2) Briefly, TZM-bl cells were infected with 200 TCID50 of HIV-1 or HIV-2 in the presence of serial-fold dilutions of the compounds in the growth medium, supplemented with diethylaminoethyl-dextran (DEAE-dextran). After 48 h of infection, luciferase expression was quantified with Pierce Firefly Luc One-Step Glow Assay Kit (ThermoFisher Scientific, Rockford, United States), according to the instructions of the manufacturer. For each compound dilution, the assay was set up in triplicate wells. Virus controls, cell controls, and inhibitors controls (drugs with a known action against each virus) were employed.

HIV-1 SG3.1 = assay: microbe, parasite or virus in culture; conditions: for IC50 / IC90 / inhibition at 25 µg/mL: Human immunodeficiency virus 1, TZM-bl; for IC50 / IC90: 48 h; for IC50: read-out: IC50 HIV-1, TZM-bl cells, 48 h; for IC90: read-out: IC90 HIV-1; for inhibition at 25 µg/mL: read-out: MPI (%) 25 μg/mL; for Therapeutic index (CC50/IC50): HIV-1, CC50 in TZM-bl cells
Excerpt: as §1, §2

P. berghei hepatic stage = assay: In vitro hepatic infection of Huh7 cells by luciferase-expressing P. berghei; type: cell-based; conditions: Plasmodium berghei, Huh-7; hepatic stage, Huh7 cells, 48 h after infection
Procedure: The inhibitory activity of test compounds on in vitro hepatic infection by P. berghei was determined by comparing the parasite load in compound- and solvent-treated P. berghei-infected Huh7 cells. Infection load was assessed by measurement of luminescence intensity in Huh7 cells infected, with a firefly luciferase-expressing P. berghei line, as previously described ([Ploemen et al., 2009]; [António et al., 2017]). Briefly, Huh7 cells were seeded in 96-well plates (1.0 × 10^4 cells per well) the day before drug treatment and infection. The medium was replaced by another medium containing the appropriate concentration of each compound approximately 1 h prior to infection with sporozoites freshly obtained through disruption of salivary glands of infected female Anopheles stephensi mosquitoes. Sporozoite addition was followed by centrifugation at 1,800 g for 5 min. Parasite infection load was measured 48 h after infection by a bioluminescence assay (Biotium). Cell confluence, a surrogate measure of compound toxicity to Huh7 cells, was assessed by fluorescence measurements using the alamarBlue assay, according to the manufacturer’s instructions. […] Specifically, non-linear regression analysis was employed to fit the normalized results of the dose-response curves, and IC50 values were determined using GraphPad Prism 8.0 (GraphPad Software, La Jolla, California, United States).

[1] = Cellular viability assay (alamarBlue) in TZM-bl cells; type: cell-based; conditions: human, 50% cytotoxic concentration
Procedure: Before the antiviral activity screening, all spirocyclopentene-β-lactams were assayed for their in vitro cytotoxic activity (CC50) in TZM-bl cells (Table 4).
TZM-bl cells (AIDS Research and Reference Reagent Program, National Institutes of Health, United States) were cultured in complete growth medium consisting of Dulbecco’s Minimal Essential Medium (DMEM) supplemented with 10% fetal bovine serum (FBS), 100 U/ml of penicillin–streptomycin (Gibco/Invitrogen, United States), 1 mM of sodium pyruvate (Gibco/Invitrogen, United States), 2 mM of L-glutamine (Gibco/Invitrogen, United States), and 1 mM of non-essential amino acids (Gibco/Invitrogen, United States). Cell cultures were maintained at 37°C in 5% CO2.
The in vitro cytotoxicity of test compounds was evaluated in TZM-bl cells using alamarBlue cell viability reagent (Life Technologies, United States), according to the instructions of the manufacturer. The cells were cultured in the presence and absence of serial-fold dilutions of the test compounds. Each dilution of each compound was performed in triplicate wells. Medium controls (only growth medium), cell controls (cells without test compound), and cytotoxicity controls (a compound that kills cells) were employed in each assay.

| SMILES | IC50 (HIV-2 03PTHCC19) [nM] | IC90 (HIV-2 03PTHCC19) [nM] | inhibition at 25 µg/mL (HIV-2 03PTHCC19) [%] | IC50 (HIV-1 SG3.1) [nM] | IC90 (HIV-1 SG3.1) [nM] | inhibition at 25 µg/mL (HIV-1 SG3.1) [%] | IC50 (P. berghei hepatic stage) [nM] | melting point [°C] | CC50 [1] [nM] | Therapeutic index (CC50/IC50) (HIV-1 SG3.1) |
| --- | --- | --- | --- | --- | --- | --- | --- | --- | --- | --- |
| CC1(C)SC2N(C(=O)C23CC=C(C(=O)OCC=Cc2ccccc2)C3C(=O)c2ccccc2)C1C(=O)OC(c1ccccc1)c1ccccc1 (stereo not drawn) [Compound 9n, (1’R,2’R)-Benzhydryl spiro[(2-benzoyl-3-cinnamyloxycarbonylcyclopent-3-ene)-1’,6-penicillanate]] | 16 | 64 | 100 | 17 | 46 | 100 | 1580 ± 191 | 67.8 to 69.4 | 62300 |  |
| CC1(C)SC2N(C(=O)C23CC=C(C(=O)OCc2ccccc2)C3C(=O)c2ccc(Br)cc2)C1C(=O)OC(c1ccccc1)c1ccccc1 (stereo not drawn) [Compound 12c, (1’R,2’R)-Benzhydryl spiro[(2-(4-bromobenzoyl)-3-benzyloxycarbonylcyclopent-3-ene)-1’,6-penicillanate]] | 93 | 159 | 100 | 50 | 116 | 87 | 1000 to 10000 | 156.5 to 158.5 | 55000 |  |
| CC1(C)SC2N(C(=O)C23CC=C(C(=O)OCc2ccccc2)C3C(=O)c2ccco2)C1C(=O)OC(c1ccccc1)c1ccccc1 (stereo not drawn) [Compound 12i, (1’R,2’R)-Benzhydryl spiro[(2-furoyl-3-benzyloxycarbonylcyclopent-3-ene)-1’,6-penicillanate]] |  |  |  | 140 | 223 | 87 |  | 76.5 to 78.5 | 78300 | 559.29 |
| CC1(C)SC2N(C(=O)C23C(C(=O)OCc2ccccc2)=CCC3C(=O)c2ccc(F)cc2)C1C(=O)OC(c1ccccc1)c1ccccc1 (stereo not drawn) [Compound 13a, (1′R,2′R)-benzhydryl spiro[(2-(4-fluorobenzoyl)-5-benzyloxycarbonylcyclopent-4-ene)-1′,6-penicillanate]] |  |  |  |  |  | 0 |  | 73.9 to 75.9 | 64800 |  |
| CC1(C)SC2N(C(=O)C23C(C(=O)OCc2ccccc2)=CCC3C(=O)c2ccc(Cl)cc2)C1C(=O)OC(c1ccccc1)c1ccccc1 (stereo not drawn) [Compound 13b, (1’R,2’R)-Benzhydryl spiro[(2-(4-chlorobenzoyl)-5-benzyloxycarbonylcyclopent-4-ene)-1’,6-penicillanate]] |  |  |  |  |  | 0 |  | 116.3 to 118.3 | 63700 |  |
| CC1(C)SC2N(C(=O)C23C(C(=O)OCc2ccccc2)=CCC3C(=O)c2ccc(Br)cc2)C1C(=O)OC(c1ccccc1)c1ccccc1 (stereo not drawn) [Compound 13c, (1’R,2’R)-Benzhydryl spiro[(2-(4-bromobenzoyl)-5-benzyloxycarbonylcyclopent-4-ene)-1’,6-penicillanate]] |  |  |  |  |  | 0 |  | 115.9 to 117.9 | 50600 |  |
| CC1(C)SC2N(C(=O)C23C(C(=O)OCc2ccccc2)=CCC3C(=O)c2ccc([N+](=O)[O-])cc2)C1C(=O)OC(c1ccccc1)c1ccccc1 (stereo not drawn) [Compound 13d, (1’R,2’R)-Benzhydryl spiro[(2-(4-nitrobenzoyl)-5-benzyloxycarbonylcyclopent-4-ene)-1’,6-penicillanate]] |  |  |  |  |  | 0 |  | 122.7 to 124.7 | 73800 |  |
| CC1(C)SC2N(C(=O)C23C(C(=O)OCc2ccccc2)=CCC3C(=O)c2ccc(C(F)(F)F)cc2)C1C(=O)OC(c1ccccc1)c1ccccc1 (stereo not drawn) [Compound 13e, (1’R,2’R)-Benzhydryl spiro[(2-(4-trifluoromethylbenzoyl)-5-benzyloxycarbonylcyclopent-4-ene)-1’,6-penicillanate]] |  |  |  |  |  | 0 |  | 141.1 to 143.1 | 54700 |  |
| CC1(C)SC2N(C(=O)C23C(C(=O)OCc2ccccc2)=CCC3C(=O)c2cc(F)cc(F)c2)C1C(=O)OC(c1ccccc1)c1ccccc1 (stereo not drawn) [Compound 13f, (1’R,2’R)-Benzhydryl spiro[(2-(3,5-difluorobenzoyl)-5-benzyloxycarbonylcyclopent-4-ene)-1’,6-penicillanate]] |  |  |  |  |  | 0 |  | 134.8 to 136.8 | 58800 |  |
| CC1(C)SC2N(C(=O)C23C(C(=O)OCc2ccccc2)=CCC3C(=O)c2ccc3ccccc3c2)C1C(=O)OC(c1ccccc1)c1ccccc1 (stereo not drawn) [Compound 13h, (1’R,2’R)-Benzhydryl spiro[(2-naphthoyl-5-benzyloxycarbonylcyclopent-4-ene)-1’,6-penicillanate]] |  |  |  |  |  | 0 |  | 90.8 to 92.8 | 56200 |  |
| CC1(C)SC2N(C(=O)C23C(C(=O)OCc2ccccc2)=CCC3C(=O)c2ccco2)C1C(=O)OC(c1ccccc1)c1ccccc1 (stereo not drawn) [Compound 13i, (1’R,2’R)-Benzhydryl spiro[(2-furoyl-5-benzyloxycarbonylcyclopent-4-ene)-1’,6-penicillanate]] |  |  |  |  |  | 0 |  | 112.8 to 114.8 | 61200 |  |
| Cc1ccc(COC(=O)C2=CCC3(C(=O)N4C(C(=O)OC(c5ccccc5)c5ccccc5)C(C)(C)SC43)C2C(=O)c2ccc(Cl)cc2)cc1 (stereo not drawn) [Compound 14e, (1’R,2’R)-Benzhydryl spiro[(2-(4-chlorobenzoyl)-3-(4-methylbenzyloxycarbonyl)cyclopent-3-ene)-1’,6-penicillanate]] |  |  |  | 211 | 720 | 94 |  | 79.5 to 81.5 | 100000 | 474.41 |
| CC1(C)SC2N(C(=O)C23CC=C(C(=O)OCC=Cc2ccccc2)C3C(=O)c2ccc(Cl)cc2)C1C(=O)OC(c1ccccc1)c1ccccc1 (stereo not drawn) [Compound 14f, (1’R,2’R)-Benzhydryl spiro[(2-(4-chlorobenzoyl)-3-cinnamyloxycarbonylcyclopent-3-ene)-1’,6-penicillanate]] |  |  |  | 67 | 198 | 97 |  | 81.7 to 83.7 | 87500 | 1305.67 |
| Cc1ccc(COC(=O)C2=CCC3(C(=O)N4C(C(=O)OC(c5ccccc5)c5ccccc5)C(C)(C)SC43)C2C(=O)c2ccc(Br)cc2)cc1 (stereo not drawn) [Compound 14h, (1’R,2’R)-Benzhydryl spiro[(2-(4-bromobenzoyl)-3-(4-methylbenzyloxycarbonyl)cyclopent-3-ene)-1’,6-penicillanate]] |  |  |  | 111 | 297 | 93 |  | 74.9 to 76.9 | 72100 | 649.73 |
| CC1(C)SC2N(C(=O)C23CC=C(C(=O)OCC=Cc2ccccc2)C3C(=O)c2ccc(Br)cc2)C1C(=O)OC(c1ccccc1)c1ccccc1 (stereo not drawn) [Compound 14i, (1’R,2’R)-Benzhydryl spiro[(2-(4-bromobenzoyl)-3-cinnamyloxycarbonylcyclopent-3-ene)-1’,6-penicillanate]] |  |  |  | 143 | 305 | 95 |  | 89.1 to 91.1 | 66900 | 467.62 |
